The values below come from patent US20170298055A1, “sGC STIMULATORS” (IRONWOOD PHARMACEUTICALS, INC., priority 2014, published 2017).

Experiment [1] has as its target T1, sGC enzyme (Homo sapiens, UniProt Q02108+Q02153).
T1 construct: host or cells: HEK293 cells stably expressing GloSensor 40F cGMP biosensor
T1 sequence (Q02153 1-619): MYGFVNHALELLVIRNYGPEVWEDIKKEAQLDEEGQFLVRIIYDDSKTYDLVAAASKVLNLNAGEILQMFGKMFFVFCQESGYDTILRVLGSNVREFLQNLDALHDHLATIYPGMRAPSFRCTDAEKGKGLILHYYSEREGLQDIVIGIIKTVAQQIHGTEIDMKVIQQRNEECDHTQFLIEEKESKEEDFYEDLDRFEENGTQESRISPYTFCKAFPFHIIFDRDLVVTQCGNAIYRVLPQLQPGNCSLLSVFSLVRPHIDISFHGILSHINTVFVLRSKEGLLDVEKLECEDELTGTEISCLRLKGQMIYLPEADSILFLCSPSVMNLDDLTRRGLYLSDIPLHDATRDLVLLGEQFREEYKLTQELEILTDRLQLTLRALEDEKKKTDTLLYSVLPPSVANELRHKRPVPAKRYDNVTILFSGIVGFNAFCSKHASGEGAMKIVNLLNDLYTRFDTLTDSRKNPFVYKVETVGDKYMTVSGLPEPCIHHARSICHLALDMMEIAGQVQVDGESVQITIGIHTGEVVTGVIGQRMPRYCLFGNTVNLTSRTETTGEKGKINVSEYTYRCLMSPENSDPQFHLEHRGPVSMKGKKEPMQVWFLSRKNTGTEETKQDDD
T1 sequence (Q02108 1-690): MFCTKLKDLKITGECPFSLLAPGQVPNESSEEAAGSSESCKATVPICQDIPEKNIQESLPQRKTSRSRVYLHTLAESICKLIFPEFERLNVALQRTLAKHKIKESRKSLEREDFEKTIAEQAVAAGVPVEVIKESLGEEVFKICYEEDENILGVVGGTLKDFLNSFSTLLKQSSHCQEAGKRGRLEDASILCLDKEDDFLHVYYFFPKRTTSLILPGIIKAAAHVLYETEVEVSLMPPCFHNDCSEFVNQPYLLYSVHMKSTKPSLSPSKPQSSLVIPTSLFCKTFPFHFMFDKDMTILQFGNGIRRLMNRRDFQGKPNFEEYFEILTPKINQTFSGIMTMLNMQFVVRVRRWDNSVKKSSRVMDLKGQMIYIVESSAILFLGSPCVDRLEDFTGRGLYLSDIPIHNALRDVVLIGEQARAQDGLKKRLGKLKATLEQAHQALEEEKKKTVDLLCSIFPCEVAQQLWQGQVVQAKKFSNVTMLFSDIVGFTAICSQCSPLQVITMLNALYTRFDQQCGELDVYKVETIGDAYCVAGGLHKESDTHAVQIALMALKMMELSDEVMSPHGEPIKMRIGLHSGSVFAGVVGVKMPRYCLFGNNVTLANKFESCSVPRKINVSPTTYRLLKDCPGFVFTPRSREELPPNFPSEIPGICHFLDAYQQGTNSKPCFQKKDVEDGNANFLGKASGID
Kind of experiment: cGMP GloSensor cell-based assay, 384-well format (Example 2C). The settings on record: read-out: sGC_HEK_GloSensor EC50/IC50 Abs (Norm) (nM) Binned. From the text: Human embryonic kidney cells (HEK293) cells expressing GloSensor™ 40F cGMP (Part No: CS182801, Promega) were used to evaluate the activity of test compounds. The luminescent biosensors (engineered luciferase) that were incorporated into these cells detect cGMP formed by the compounds stimulating the sGC enzyme and emit luminescence.
cGMP GloSensor cells were maintained in Dulbecco's Modification of Eagle's Medium (DMEM) supplemented with fetal bovine serum (FBS) (10% final) and hygromycine (200 ug/ml). The day before assay, cells were plated in DMEM with 10% FBS in a 50 μL volume at a density of 1.5×10^4 cells/well in a poly-D-lysine coated 384-well flat white-bottom plate (Corning Cat No 35661). Cells were incubated overnight at 37° C. in a humidified chamber with 5% CO2. The next day, medium was removed and cells were replaced with 40 ul/well of GloSensor™, 2 mM (Promega Cat No E1291). Cells were treated for 90 minutes at 25° C. to allow the substrate to equilibrate in the cells. Test compounds and Diethylenetriamine NONOate (DETA-NONOate) was diluted to 3 mM (20×) in serum-free CO2 independent medium and serally diluted at 4× dilutions to create 5× dose curve from which 10 ul was added to the wells (x μM concentration for test compound solution and 10 μM concentration for DETA-NONOate solution; wherein x is one of the following final concentrations).
For the kinetics studies, luminescense was measured right away for 0.2 sec per well with Envision (Perkin Elmer model No). For endpoint SAR screening, data were collected after 55 min incubation at room temperature.
Data analysis was carried out as indicated above in Example 2C.

Experiment [2] relates to Guinea pig tracheal smooth muscle. Put plainly: Electrical field stimulated guinea pig tracheal smooth muscle contraction (ex vivo). The following applies: sub-maximal EFS, cumulative dose response curve, three animals pooled; read-out: IC50, inhibition of EFS-induced tracheal smooth muscle contraction. An excerpt:
On each experimental day, a guinea pig is killed by exposure to a rising concentration of CO2 and the trachea removed. The trachea is cleaned of extraneous tissue and cut open longitudinally in a line opposite the muscle, opened out and cut into strips 2-3 cartilage rings wide. A cotton loop is attached to one end of each tracheal strip and a length of cotton to the other end. Tracheal strips are then suspended between two platinum electrodes, using tissue holders, in a Myobath system (World Precision Instruments Stevenage, UK). […] Tissues are washed with Kreb's buffer and stimulated using the previously determined sub-maximal voltage for 1 hour to establish a stable baseline contraction prior to assessment of compound activity.
A cumulative dose response curve (DRC) to each test substance is then performed and changes in smooth muscle contraction measured. The effect of each test substance in each experiment is expressed as a percentage inhibition of the baseline contraction, normalized to the relevant vehicle controls. […] The data from all three experiments are pooled, the DRC plotted, and the test substance potency and efficacy determined.

Experiment [3] deals with obese mice. The settings on record: cited from earlier work.
In experiment [4] the target is T2, human recombinant soluble guanylate cyclase enzyme α1β1 (Homo sapiens, UniProt Q02108+Q02153).
T2 construct: purchased Enzo Life Sciences ALX-201-177
T2 sequence (Q02153 1-619): T1 sequence (Q02153 1-619)
T2 sequence (Q02108 1-690): T1 sequence (Q02108 1-690)
Put plainly: Purified human recombinant sGC α1β1 enzyme assay with DETA-NONOate, cGMP HTRF (Example 5). Format: biochemical. The following applies: 30 uM DETA NONOate, 50% of maximal response of 30 uM Compound Y, read-out: sGC_Enz_HTRF_a1b1 EC50/IC50 Abs (Norm) (nM) Binned. The protocol: Purified human recombinant soluble guanylate cyclase enzyme α1β1 (h sGC) obtained from Enzo Life Sciences (P/N: ALX-201-177) was used to evaluate the activity of test compounds. The assay reactions contained 0.1 M Tris (pH 8.0), 0.5 mg/mL BSA, 2 mM DTT, 4 mM MgCl2, 30 uM DETA NONOate (Enzo Life Science P/N: ALX-430-014), and 12.5 ng/ml human soluble guanylate cyclase enzyme. […] Guanosine 5′-triphosphate (Sigma-Aldrich P/N: G8877) was added to a final concentration of 300 μM and enzyme reactions were incubated (100 μL, 384-well plate format) at 37° C. for 20 minutes. The controls contained 3% DMSO (low control), or 30 uM of Compound Y (high control). After the 20 minute incubation, the reaction was stopped with the addition of 100 μL of ice cold 20% acetic acid.
cGMP concentrations in all samples were determined using the cGMP HTRF (Cisbio P/N: 62GM2PEC) assay per manufacturer's instructions. A cGMP standard curve was fit using a 4-parameter fit (log(inhibitor) vs. response variable slope) using GraphPad Prism Software v.6. Samples were diluted appropriately to ensure that values fell within the linear range of the standard curve.
Data were fit using a 4-parameter fit (log(agonist) vs. response variable slope) using GraphPad Prism Software v.6.
(In TR-FRET formats the signal depends on donor and acceptor labels being close together.)

For experiment [5], the system named is NO-deficient rats. The following applies: cited from earlier work.

pIC50: −log10 of the molar value.

Regarding `O=S(=O)(c1ccccc1)c1nc(-c2cc(-c3ccon3)n(Cc3ccccc3F)n2)ncc1F` [Compound I-38], in experiment [1], the EC50 is no more than 100 nM.
In the case of `OCCSc1cnc(-c2cc(-c3ccon3)n(Cc3ccccc3F)n2)nc1SCCO` [Compound I-35], the EC50 in experiment [1] is greater than 1000 nM.
The same measure, in the same setting: the value for `OCCSc1nc(-c2cc(-c3ccon3)n(Cc3ccccc3F)n2)ncc1F` [Compound I-34] was greater than 1000 nM.
Regarding `CC(C)[N+]1(C)[C@@H]2CC[C@H]1CC(OC(=O)C(CO)c1ccccc1)C2` (some centres unmarked) [Ipratropium bromide], the negative-log IC50 (pIC50) (usually −log10 of the IC50, conventionally taken in molar units) in experiment [2] is 9.07.
As to `Fc1ccccc1Cn1nc(-c2ncc(F)c(Sc3ccccc3)n2)cc1-c1ccon1` [Compound I-37], the EC50 in experiment [1] lay in the range of 100 to 1000 nM.
Regarding `O=C(O)CCCCN(CCc1cc(F)ccc1OCc1ccc(-c2ccc(C(F)(F)F)cc2)cc1)Cc1ccc(C(=O)O)cc1` [BAY 60-2770], the “effect on overactive bladder” value in experiment [3] is listed as “ameliorates overactive bladder in obese mice”.
As for `O=C(O)COc1nc(-c2cc(-c3ccon3)n(Cc3ccccc3F)n2)ncc1F` [Compound I-6], in experiment [4], the EC50 is no less than 5000 nM.
For the molecule `Nc1nc(-c2nn(Cc3ccccc3F)c3ncccc23)ncc1C1CC1` [BAY-2272], the “effect on bladder dysfunction” value in experiment [5] was “protective effects”.
